Here are results for one compound from publication PMC12198407, “Preclinical and first-in-human of purinostat mesylate, a novel selective HDAC I/IIb inhibitor, in relapsed/refractory multiple myeloma and lymphoma” (Signal Transduction and Targeted Therapy, 2025).

For one data set, the target named is HDAC3 (Homo sapiens, UniProt O15379). Kind of data set: HDAC enzyme activity in vitro. Type of data set: biochemical.
Data set [1] in a line: Metabolic stability in liver microsomes. It counts as in vitro ADME. The note with it: for half-life at 1 µM: NADPH, 37°C; for CLint scaled at 1 µM: read-out: liver intrinsic clearance (CLint). The procedure:
The metabolic stability of Purinostat Mesylate was evaluated in CD-1 mice, SD rats, Beagle dogs, crab-eating monkeys, and human liver microsomes. Under conditions of 37°C, 1 µM of Purinostat Mesylate was incubated with liver microsomes from the five species mentioned above, supplemented with a NADPH regeneration system, for varying durations up to 60 minutes. The concentration of Purinostat Mesylate in the resulting samples was analyzed using LC/MS/MS.
For orientation: Liver microsomes are a subcellular fraction often used to study metabolism.

The test system of the next data set is 5TGM1-luc myeloma. Kind of data set: 5TMM mouse model, survival and serum calcium. Type of data set: in vivo, C57BL/KawRij mice. On the set-up: serum calcium level: unit not given here. The note with it: 10 mg/kg. How it is done:
The cMYC-KRAS12V-induced plasmacytoma mouse model in BALB/c (GemPharmatech Co., Ltd., Nanjing, China) was established as previously described.[33] On day 28 or 35 post bone marrow transplantation, recipients received various treatments. The 5TMM mouse model was established as previously described.[55] The 5TGM1-luc cells were intravenously injected into 6-week-old C57BL/KawRij mice (Harlan Co. Netherlands) with 2 × 10^6 cells per mouse. After three weeks, mice were treated with vehicle or PM 10 mg/kg. Serum Ca^2+ levels were monitored weekly for three weeks after the start of administration. Kaplan-Meier survival curves were generated for each treatment group. Additionally, the 5TMM mouse model studying PM’s effects on immune response and bone destruction involved randomizing mice into vehicle and PM (10 mg/kg) groups one week after inoculation. T cell subsets were analyzed by flow cytometry 24 h after a single dose and 1 month after vehicle or PM treatment. The mice were sacrificed after 1 month of treatment, and the bone destruction was detected by Micro-CT.

For a further data set, the target named is T1, CYP1A2 (Homo sapiens, UniProt P05177).
T1 construct: human liver microsomal cytochrome P450 isoenzymes; from tissue; host or cells: human liver microsomes
The experiment in a line: CYP inhibition, human liver microsomes. Type of data set: in vitro ADME.

Read-outs that look alike come from different tables or passages of the source.

T1 sequence (P05177 whole entry): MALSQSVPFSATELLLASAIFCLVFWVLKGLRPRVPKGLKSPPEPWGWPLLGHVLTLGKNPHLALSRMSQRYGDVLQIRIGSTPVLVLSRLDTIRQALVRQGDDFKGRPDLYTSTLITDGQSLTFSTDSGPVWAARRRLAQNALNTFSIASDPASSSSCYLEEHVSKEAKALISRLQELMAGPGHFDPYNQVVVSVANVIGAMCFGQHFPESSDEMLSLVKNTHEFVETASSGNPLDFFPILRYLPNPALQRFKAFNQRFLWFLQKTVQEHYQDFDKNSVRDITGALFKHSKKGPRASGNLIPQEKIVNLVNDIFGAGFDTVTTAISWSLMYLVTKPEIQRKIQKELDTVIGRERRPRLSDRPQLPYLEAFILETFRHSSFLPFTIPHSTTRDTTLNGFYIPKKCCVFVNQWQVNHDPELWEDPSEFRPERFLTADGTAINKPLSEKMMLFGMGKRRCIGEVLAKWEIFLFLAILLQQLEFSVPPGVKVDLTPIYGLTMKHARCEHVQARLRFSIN
Sequence of HDAC3 (O15379 whole entry): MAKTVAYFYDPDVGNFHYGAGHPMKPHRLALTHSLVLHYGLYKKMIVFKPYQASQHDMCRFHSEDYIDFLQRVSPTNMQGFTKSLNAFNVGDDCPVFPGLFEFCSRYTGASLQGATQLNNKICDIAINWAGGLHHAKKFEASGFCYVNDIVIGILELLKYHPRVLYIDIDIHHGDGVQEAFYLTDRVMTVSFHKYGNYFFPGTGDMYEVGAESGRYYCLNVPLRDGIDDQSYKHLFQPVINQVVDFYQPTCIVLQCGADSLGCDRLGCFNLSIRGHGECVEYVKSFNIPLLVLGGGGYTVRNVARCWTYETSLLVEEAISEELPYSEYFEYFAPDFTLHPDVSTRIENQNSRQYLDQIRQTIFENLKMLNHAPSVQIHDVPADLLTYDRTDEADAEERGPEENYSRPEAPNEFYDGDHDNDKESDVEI
Sequence of HDAC3 (Q9Y618 395-489 partner limits assumed): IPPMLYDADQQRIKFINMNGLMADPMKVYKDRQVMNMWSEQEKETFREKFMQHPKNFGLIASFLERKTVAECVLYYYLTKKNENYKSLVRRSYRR

As to `CN(Cc1nc2c(N3CCOCC3)nc(-c3ccc(N)cc3)nc2n1C)c1ncc(C(=O)NO)cn1.CS(=O)(=O)O` [PM, 2-(((2-(4-Aminophenyl)-9-methyl-6-(4-morpholinyl)-9H-purine-8-yl)methyl)methylamino)-N-hydroxy-5-pyrimidine-carboxamide Mesylate], the IC50 at HDAC3 was 1.7 nM; on CYP1A2, over 10000 nM. Moreover, the half-life at 1 µM was 1.63 h in data set [1] (Beagle, dog); over 3.1 h in data set [1] (CD-1, mouse); over 3.1 h in data set [1] (SD, rat); over 3.1 h in data set [1] (human); 0.0517 h in data set [1] (monkey). The CLint scaled at 1 µM in data set [1] (Beagle, dog) is 20.4 mL/min/kg; in data set [1] (CD-1, mouse) it was under 29.7 mL/min/kg; in data set [1] (SD, rat) it was under 13.5 mL/min/kg; in data set [1] (human) it was under 6.8 mL/min/kg; in data set [1] (monkey), 598 mL/min/kg. In the data set with 5TGM1-luc myeloma (two weeks, vehicle 20.93), the serum calcium level was found to be 8.972. The survival in the data set with 5TGM1-luc myeloma (vehicle 50 days) was 86 days.

One may read the IC50 as the concentration that inhibits the measured activity by half. In general, half-life refers to the time needed for the level to fall by half in the phase considered.
